Where a SMILES comes first, the peptide text is derived from it. Bridges are numbered along the chain shown (N, C = ends).
Molecular target: T1, Kv4.3 (Rattus norvegicus, UniProt Q62897)
T1 construct: expressed in transfected cells; host or cells: HEK293t
T1 sequence (Q62897 1-655): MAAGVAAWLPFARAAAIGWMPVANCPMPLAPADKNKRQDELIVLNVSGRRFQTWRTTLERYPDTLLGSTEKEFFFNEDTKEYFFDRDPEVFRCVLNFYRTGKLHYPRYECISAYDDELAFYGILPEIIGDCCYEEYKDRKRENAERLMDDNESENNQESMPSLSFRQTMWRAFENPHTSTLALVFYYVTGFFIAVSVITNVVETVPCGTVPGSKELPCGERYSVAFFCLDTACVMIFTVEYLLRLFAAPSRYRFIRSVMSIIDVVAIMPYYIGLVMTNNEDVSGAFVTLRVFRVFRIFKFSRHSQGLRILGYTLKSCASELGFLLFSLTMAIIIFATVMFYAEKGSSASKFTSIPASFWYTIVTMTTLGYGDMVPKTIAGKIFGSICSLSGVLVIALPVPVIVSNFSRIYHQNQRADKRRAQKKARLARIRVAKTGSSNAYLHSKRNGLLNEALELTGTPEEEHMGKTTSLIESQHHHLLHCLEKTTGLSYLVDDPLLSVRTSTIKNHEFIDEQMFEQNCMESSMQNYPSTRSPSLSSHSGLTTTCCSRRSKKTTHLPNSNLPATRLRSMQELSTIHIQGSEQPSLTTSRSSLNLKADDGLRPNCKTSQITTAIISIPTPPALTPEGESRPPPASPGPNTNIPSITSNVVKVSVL
Experiment: whole-cell patch-clamp, Kv4.3 in HEK293t cells, concentration-response and time course
Assay type: cell-based
Source text: Rat cDNA genes encoding Kv4.2 (Accession: NM_031730.2) and Kv4.3 (Accession: AB003587.1) were subcloned to vector pcDNA3.1. In addition, human cDNA genes encoding Nav1.7 (Accession: DQ857292.1) and Nav1.5 (Accession: AB158469.2) were subcloned to vectors pcDNA3.1-mod and pcDNA3.1, separately. Then, Kv4.2, Kv4.3, Nav1.5 and Nav1.7 constructs were transiently transfected into the human embryonic kidney 293t (HEK293t) cells using lipofectamine 2000 (Invitrogen, USA) in accordance with manufacturer protocols. Thereafter, HEK293 cells were inoculated within Dulbecco’s modified Eagle’s medium (DMEM) containing 10% fetal bovine serum (FBS) at 5% CO2 and 37°C. The Kv4.3 channel and the Kv4.2 counterpart were then transfected in the absence of β subunit. Subsequently, cells were incubated with a DNA-lipofectamine mixture (one reporter plasmid for green fluorescence protein and channel constructs) for 4-6 h, and were washed with the fresh medium.
An EPC-10 patch-clamp amplifier (HEKA, Germany) was employed to record the potassium currents at the configuration of whole-cell patch-clamp under an ambient temperature of 22-25°C. The resistance was 2.0-3.0 MΩ when the recording pipette contained a full volume of internal solution (supplemented with 140 mM KCl, 10 mM HEPES, 2.5 mM MgCl2, 5 mM ATP and 11 mM EGTA). KOH was utilized to adjust the pH to 7.2, while sucrose was employed to adjust the osmolarity to 310 mOsm/L. The culture medium was replaced with an external solution containing 150 mM NaCl, 2.5 mM CaCl2, 10 mM HEPES, 2 mM MgCl2, 5 mM KCl, and 10 mM D-glucose. Similarly, sucrose and NaOH were applied to adjust the osmolarity to 330 mOsm/L and pH to 7.4. […] The series resistance was maintained at about 5 MΩ, with 65-70% compensation. Finally, the leakage currents and linear capacitance were subtracted digitally according to the P/4 protocol. […]
On-rates were determined by fitting time course data with a single exponential decay function (2): y = Ae^-kx + C, where x is the time, A is the normalized current value before the application of toxin (usually 1.0), and C is the final normalized current value following the block by the toxin. The on-rate (τon) was determined from the inverse of the rate constant k.
Off-rates were determined by fitting time course data with a double exponential association function (3): y = A(1-e^-kx) + B(1-e^-fx) + C, where x is the time, A or B is the normalized current value after washout of the toxin (usually 1.0 if complete washout occurred), and C is the normalized current value before the washout of the toxin. The off-rate (τoff) was determined from the inverse of the rate constant k or f.

CC(C)C[C@@H]1NC(=O)[C@H](CCCCN)NC(=O)[C@H](Cc2ccc(O)cc2)NC(=O)[C@@H]2CSSC[C@@H]3NC(=O)[C@H](Cc4ccc(O)cc4)NC(=O)[C@H](Cc4ccccc4)NC(=O)CNC(=O)[C@H](C)NC(=O)[C@H](CSSC[C@H](NC(=O)[C@@H](N)CC(C)C)C(=O)N[C@@H](CO)C(=O)N[C@@H](CCCNC(=N)N)C(=O)N[C@@H](CCC(=O)O)C(=O)NCC(=O)N[C@@H](CCC(=O)O)C(=O)N[C@@H](Cc4ccccc4)C(=O)N2)NC(=O)[C@H](CSSC[C@@H](C(=O)N[C@@H](Cc2ccc(O)cc2)C(=O)N[C@@H](CCCNC(=N)N)C(=O)N[C@@H](CC(N)=O)C(=O)O)NC(=O)[C@H](Cc2c[nH]cn2)NC(=O)[C@H](CC(C)C)NC(=O)[C@H](C(C)C)NC(=O)[C@H](Cc2ccccc2)NC(=O)[C@H](C)NC(=O)[C@H](CCCCN)NC3=O)NC(=O)[C@H](CCCCN)NC(=O)[C@H](CCCNC(=N)N)NC1=O [JZTX-X, Jingzhaotoxin-X] (H-LCSREGEFCYKLRKCCAGFYCKAFVLHCYRN-OH; disulfide 2-16, 9-21, 15-28; N-terminus assumed)
inhibition of Kv4.3 at resting potential without pulses (-80 mV, no pulse during first ~100 s of treatment with 200 nM or 500 nM (order Kv4.2, Kv4.3), same as with pulses at 5 s intervals, n = 5): approximately 95%
IC50 (HEK293t cells, 1 nM-10 μM, 300-ms step to +20 mV from -80 mV, 22-25°C, pH 7.4, Hill equation fit, n = 8, read-out: IC50 for Kv4.3 channels): 0.21 µM
Hill Coefficient, Kv4.3 (HEK293t cells, +20 mV from -80 mV, n = 8): 1.17
reversal of Kv4.3 inhibition after rinsing (in 3 min following rinsing, high JZTX-X dose, HEK293t cells, n = 6): > 95%

From article PMC7269146, “Jingzhaotoxin-X, a gating modifier of Kv4.2 and Kv4.3 potassium channels purified from the venom of the Chinese tarantula Chilobrachys jingzhao” (The Journal of Venomous Animals and Toxins Including …, 2020)
